Experiments:
[1] = Light microscopy particle size; assay type: physicochemical
Source text: Rhodine 3040 US obtained from Rhodia Inc. was used for all experiments. Particles were dispersed in 0.1% w/w docusate sodium in water and observed under a light microscope to confirm particle size. Particles ranging from 66 to 280 μm were observed confirming data from certificate of analysis, though observed “rounding” of the particulates is indicative of partial dissolution in the aqueous dispersant.
Photomicrographs of the pre- and post-micronized uncoated particles were taken by dispersing them in a solution of 0.1% w/w docusate sodium in purified water USP, and using a digital imaging light microscope (Olympus BX51 with Clemex ST-2000 controller) at 400-times or 1000-times magnification.

[2] = Anti-solvent suspension evaluation (filtration, residue weighing); assay type: physicochemical; conditions: 5% w/w suspension, room temperature
Protocol: After considering a number of factors in the end it was determined that only n-heptane and toluene fulfilled all the requirements, and therefore these were selected for further evaluation. Suspensions of acetylsalicylic acid at 5% w/w were prepared with the various anti-solvents, by charging the required amount of anti-solvent, charging the required amount of acetylsalicylic acid, and then stirring until a homogeneous suspension was obtained. The suspensions were qualitatively evaluated at room temperature and then filtered using a 0.45 μm membrane, which was then placed in an oven and dried at 60° C. until the solvent had completely evaporated. A quantitative analysis was performed on the residue that remained in the membrane by weighing the membrane before and after the test.

Q: What does the source list for CC(=O)Oc1ccccc1C(=O)O [acetylsalicylic acid]?
A: Reduction in the starting particle size by micronization [1]: approximately 70 fold; Behavior towards n-heptane [2]: phobic behavior; Solubility in toluene [2]: partially soluble
